Molecules are shown by their SMILES.

Common to all, as to format: cell-based
One test relates to HTT AJ mRNA. Briefly: Splicing assay (RT-qPCR): increase in HTT alternative junction (AJ) mRNA. To be noted: A673 or K562 cells, 24 hours treatment; concentration having 50% response in AJ mRNA increase. The gist of the method: (§1)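 A673 (DMEM/10% FBS) or K562 (IMDM/10% FBS) cells treated 24 h at 37 °C with 11-point 3-fold dilutions, top final 10 uM, DMSO ≤0.25%. Lysates taken directly to RT-qPCR for HTT CJ and AJ isoforms, normalized to GAPDH, GUSB or PPIA. ΔΔCt vs DMSO control converted to RQ (2^−ΔΔCt), then percentage response.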
In general terms: Real-time PCR tracks product formation cycle by cycle.

Test [1] concerns HTT CJ mRNA. Briefly: Splicing assay (RT-qPCR): decrease in HTT canonical junction (CJ) mRNA. To be noted: A673 or K562 cells, 24 hours treatment; concentration having 50% response in CJ mRNA decrease. The gist of the method:
as §1

Test [2] deals with HTT CJ mRNA. Nature of the test: Gene panel canonical junction qPCR assay: HTT. The conditions noted are these: Table 3, concentration having 50% response in CJ decrease, read-out: HTT IC50 (decrease in CJ mRNA levels). The procedure, abridged: (§2)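 A673 or K562 cells were treated 24 h at 37 °C with an 11-point 3-fold dilution series (top 10 uM; ≤0.25% DMSO). Canonical-junction mRNA was then measured in lysates by one-step RT-qPCR. Values were normalized to a housekeeping gene (GAPDH, GUSB or PPIA) and to the DMSO control via 2^(−ΔΔCt).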

In a further test the test system is SMN2 CJ mRNA. Briefly: Gene panel canonical junction qPCR assay: SMN2. The conditions noted are these: Table 3, concentration having 50% response in CJ decrease, read-out: SMN2 IC50 (decrease in CJ mRNA levels). The gist of the method:
as §2

Another test deals with Target C CJ mRNA. Briefly: Gene panel canonical junction qPCR assay: Target C. The conditions noted are these: Table 3, concentration having 50% response in CJ decrease, read-out: Target C IC50 (decrease in CJ mRNA levels). The procedure, abridged:
as §2

By AC50 is commonly meant the concentration at which the activity in the assay is half-maximal. Low values mean greater potency, high ones weaker potency. A word on the IC50: it is the concentration that inhibits the measured activity by half. Regarding `Cc1cn2cc(NC(=O)c3sc(C4CCNCC4)cc3F)ncc2n1` [Compound 179, 3-fluoro-N-[2-methylimidazo[1,2-a]pyrazin-6-yl]-5-(piperidin-4-yl)thiophene-2-carboxamide], the AC50 is 1 to 10 µM with HTT AJ mRNA and 0.1 to 1 µM with HTT CJ mRNA [1]. In addition, the IC50 lay within 0.1 to 1 µM with HTT CJ mRNA [2], 1 to 10 µM in the test on SMN2 CJ mRNA and 1 to 10 µM with Target C CJ mRNA.

`Cc1cn2cc(NC(=O)c3sc(C4CCNCC4)cc3F)cc(C)c2n1` [Compound 180, N-[2,8-dimethylimidazo[1,2-a]pyridin-6-yl]-3-fluoro-5-(piperidin-4-yl)thiophene-2-carboxamide]: the AC50 lay within 1 to 10 µM in the test with HTT AJ mRNA and 0.1 to 1 µM in the test with HTT CJ mRNA [1]. Moreover, the IC50 was 0.1 to 1 µM in the test with HTT CJ mRNA [2], below 0.1 µM with SMN2 CJ mRNA and 1 to 10 µM with Target C CJ mRNA.

As to `Cc1cn2cc(NC(=O)c3sc(C4CCNCC4)cc3F)cc(Cl)c2n1` [Compound 181, N-[8-chloro-2-methylimidazo[1,2-a]pyridin-6-yl]-3-fluoro-5-(piperidin-4-yl)thiophene-2-carboxamide], the AC50 in the test with HTT AJ mRNA and in the test with HTT CJ mRNA [1] was 0.1 to 1 µM each time. In addition, the IC50 with HTT CJ mRNA [2] is 0.1 to 1 µM; in the test on SMN2 CJ mRNA, below 0.1 µM; in the test with Target C CJ mRNA, 1 to 10 µM.

For `Cn1cc2ccc(NC(=O)c3sc(C4CCNCC4)cc3F)cc2n1` [Compound 182, 3-fluoro-N-(2-methylindazol-6-yl)-5-(piperidin-4-yl)thiophene-2-carboxamide], the AC50 in the test with HTT AJ mRNA and with HTT CJ mRNA [1] was above 10 µM each time. Also, the half-inhibitory concentration (IC50) in the test on HTT CJ mRNA [2], in the test with SMN2 CJ mRNA and in the test on Target C CJ mRNA was above 0.01 µM each time.

In the case of `Cn1cc2c(F)cc(NC(=O)c3sc(C4CCNCC4)cc3F)cc2n1` [Compound 183, 3-fluoro-N-(4-fluoro-2-methylindazol-6-yl)-5-(piperidin-4-yl)thiophene-2-carboxamide], the AC50 in the test on HTT AJ mRNA and in the test with HTT CJ mRNA [1] was above 10 µM throughout. Also, the IC50 in the test with HTT CJ mRNA [2], with SMN2 CJ mRNA and with Target C CJ mRNA was above 0.01 µM throughout.

In the case of `Cc1nc2c(F)cc(NC(=O)c3sc(C4CCNCC4)cc3F)cc2o1` [Compound 184, 3-fluoro-N-(4-fluoro-2-methyl-1,3-benzoxazol-6-yl)-5-(piperidin-4-yl)thiophene-2-carboxamide], the AC50 in the test with HTT AJ mRNA and in the test on HTT CJ mRNA [1] was 0.1 to 1 µM throughout. For the same compound, the IC50 was 0.1 to 1 µM in the test on HTT CJ mRNA [2], below 0.1 µM in the test with SMN2 CJ mRNA and 0.1 to 1 µM in the test on Target C CJ mRNA.

Take `Cc1nc2c(F)cc(NC(=O)c3sc(C4CCNCC4)cc3F)cc2s1` [Compound 185, 3-fluoro-N-(4-fluoro-2-methyl-1,3-benzothiazol-6-yl)-5-(piperidin-4-yl)-thiophene-2-carboxamide]: the concentration at half-maximal activity (AC50) with HTT AJ mRNA fell in the range of 1 to 10 µM; with HTT CJ mRNA [1], 0.1 to 1 µM. The IC50 was 0.1 to 1 µM in the test with HTT CJ mRNA [2], below 0.1 µM with SMN2 CJ mRNA and 1 to 10 µM with Target C CJ mRNA.

Regarding `Cc1cn2cc(NC(=O)c3cc(Cl)c(N4CCNC(C)C4)s3)cc(F)c2n1` (stereo not shown) [Compound 187], the AC50 with HTT AJ mRNA and in the test on HTT CJ mRNA [1] was above 10 µM in each case. For the same compound, the IC50 in the test on HTT CJ mRNA [2], in the test on SMN2 CJ mRNA and in the test on Target C CJ mRNA was above 0.01 µM in each case.

Take `Cc1cn2cc(NC(=O)c3cc(F)c(C4CCNCC4)s3)cc(F)c2n1` [Compound 188, 4-fluoro-N-[8-fluoro-2-methylimidazo[1,2-a]pyridin-6-yl]-5-(piperidin-4-yl)thiophene-2-carboxamide]: the AC50 in the test with HTT AJ mRNA was above 10 µM; in the test with HTT CJ mRNA [1] it was 0.1 to 1 µM. Further, the IC50 with HTT CJ mRNA [2] is 0.1 to 1 µM; in the test with SMN2 CJ mRNA, 0.1 to 1 µM; in the test on Target C CJ mRNA, above 0.01 µM.

For `COc1cc(N2CCNCC2=O)sc1C(=O)Nc1cc(F)c2nc(C)cn2c1` [Compound 189, N-[8-fluoro-2-methylimidazo[1,2-a]pyridin-6-yl]-3-methoxy-5-(2-oxopiperazin-1-yl)thiophene-2-carboxamide], the AC50 in the test on HTT AJ mRNA and in the test on HTT CJ mRNA [1] was above 10 µM in each case. Also, the IC50 in the test on HTT CJ mRNA [2], in the test on SMN2 CJ mRNA and in the test on Target C CJ mRNA was above 0.01 µM in each case.

On to `Cc1cn2cc(NC(=O)c3sc(C4CCNCC4)cc3Cl)cc(F)c2n1` [Compound 190, 3-chloro-N-[8-fluoro-2-methylimidazo[1,2-a]pyridin-6-yl]-5-(piperidin-4-yl) thiophene-2-carboxamide], for which the AC50 is 0.1 to 1 µM with HTT AJ mRNA and below 0.1 µM with HTT CJ mRNA [1]. The results for the IC50 with HTT CJ mRNA [2], with SMN2 CJ mRNA and in the test on Target C CJ mRNA were below 0.1 µM, below 0.1 µM and 1 to 10 µM, respectively.

With `Cc1cn2nc(NC(=O)c3sc(C4CCNCC4)cc3F)cc2c(C)n1` [Compound 191, N-[4,6-dimethylpyrazolo[1,5-a]pyrazin-2-yl]-3-fluoro-5-(piperidin-4-yl)thiophene-2-carboxamide], the AC50 with HTT AJ mRNA and with HTT CJ mRNA [1] was 1 to 10 µM each time. Besides, the values for the IC50 with HTT CJ mRNA [2], with SMN2 CJ mRNA and with Target C CJ mRNA were 1 to 10 µM, 0.1 to 1 µM and 1 to 10 µM, respectively.

In the case of `Cc1cn2nc(NC(=O)c3sc(C4CCNCC4)cc3F)nc2c(C)n1` [Compound 192, N-[6,8-dimethyl-[1,2,4]triazolo[1,5-a]pyrazin-2-yl]-3-fluoro-5-(piperidin-4-yl)thiophene-2-carboxamide], the AC50 in the test with HTT AJ mRNA and in the test on HTT CJ mRNA [1] was above 10 µM throughout. Besides, the IC50 in the test with HTT CJ mRNA [2], in the test on SMN2 CJ mRNA and in the test with Target C CJ mRNA was above 0.01 µM throughout.

`Cc1cn2cc(NC(=O)c3cc(Cl)c(C4CCNCC4)s3)cc(F)c2n1` [Compound 193, 4-chloro-N-[8-fluoro-2-methylimidazo[1,2-a]pyridin-6-yl]-5-(piperidin-4-yl) thiophene-2-carboxamide]: the AC50 in the test with HTT AJ mRNA and in the test with HTT CJ mRNA [1] was above 10 µM each time. For the same compound, the values for the IC50 in the test on HTT CJ mRNA [2], with SMN2 CJ mRNA and in the test with Target C CJ mRNA were above 0.01 µM, 1 to 10 µM and above 0.01 µM, respectively.

Take `Cc1cn2cc(NC(=O)c3sc(C4CCNCC4)cc3F)nc2c(C)n1` [Compound 195, N-[6,8-dimethylimidazo[1,2-a]pyrazin-2-yl]-3-fluoro-5-(piperidin-4-yl)thiophene-2-carboxamide]: the values for the concentration at half-maximal activity (AC50) in the test with HTT AJ mRNA and in the test on HTT CJ mRNA [1] were 1 to 10 µM and 0.1 to 1 µM, respectively. In addition, the results for the IC50 in the test with HTT CJ mRNA [2], in the test on SMN2 CJ mRNA and in the test with Target C CJ mRNA were 0.1 to 1 µM, below 0.1 µM and above 0.01 µM, respectively.

On to `Cc1cn2cc(NC(=O)c3sc([C@@H]4CCN[C@H](C)C4)cc3F)cc(C(F)(F)F)c2n1` [Compound 196, 3-fluoro-N-[2-methyl-8-(trifluoromethyl)imidazo[1,2-a]pyridin-6-yl]-5-[(cis-)-2-methylpiperidin-4-yl]thiophene-2-carboxamide], for which the values for the AC50 in the test on HTT AJ mRNA and in the test with HTT CJ mRNA [1] were above 10 µM and 1 to 10 µM, respectively. In addition, the IC50 in the test with HTT CJ mRNA [2] is 1 to 10 µM; in the test with SMN2 CJ mRNA, 0.1 to 1 µM; with Target C CJ mRNA, above 0.01 µM.

In the case of `Cc1cn2cc(NC(=O)c3sc([C@H]4CCN[C@H](C)C4)cc3F)cc(C(F)(F)F)c2n1` [Compound 197, 3-fluoro-N-[2-methyl-8-(trifluoromethyl)imidazo[1,2-a]pyridin-6-yl]-5-[(trans-)-2-methylpiperidin-4-yl]thiophene-2-carboxamide], the AC50 with HTT AJ mRNA and in the test with HTT CJ mRNA [1] was 1 to 10 µM in each case. The IC50 in the test with HTT CJ mRNA [2] was 1 to 10 µM; in the test on SMN2 CJ mRNA, 0.1 to 1 µM; in the test on Target C CJ mRNA, above 0.01 µM.

For the origin of these results see patent US20230142338A1, “THIOPHENYL DERIVATIVES USEFUL FOR MODULATING NUCLEIC ACID SPLICING” (REMIX THERAPEUTICS INC., priority 2020, published 2023).
